Laboratory results reported in patent publication EP4295688A1, “ACTIVE COMPOUND COMBINATION” (Bayer Aktiengesellschaft, priority 2022, dated 2023).
Where two headings read alike, the source gives them in different places.

Assay: Measurement of LogP values by HPLC on reversed phase columns (EEC directive 79/831 Annex V.A8)
Format: physicochemical
Conditions: for chromatographic logP: reversed-phase HPLC column (Agilent Zorbax Eclipse C18)
Protocol: Measurement of LogP values was performed according to EEC directive 79/831 Annex V.A8 by HPLC (High Performance Liquid Chromatography) on reversed phase columns (Agilent Zorbax Eclipse C18) with the following methods: • ^[a] LogP value is determined by measurement of LC-UV and/or MS and/or ELS, in an acidic range, with 0.1% formic acid in water and acetonitrile as eluent (linear gradient from 10% acetonitrile to 95% acetonitrile). • ^[b] LogP value is determined by measurement of LC-UV and/or MS and/or ELS, in a neutral range, with 0.001 molar ammonium acetate solution in water and acetonitrile as eluent (linear gradient from 10% acetonitrile to 95% acetonitrile). If more than one LogP value is available within the same method, all the values are given and separated by "+". Calibration was done with straight-chain alkan2-ones (with 3 to 16 carbon atoms) with known LogP values (measurement of LogP values using retention times with linear interpolation between successive alkanones). Lambda-max-values were determined using UV-spectra from 200 nm to 400 nm and the peak values of the chromatographic signals.

[1] = [Method A] as printed in the preparation examples (taken as method [a], acidic range)
[2] = method [a]: acidic range, 0.1% formic acid in water and acetonitrile as eluent (linear gradient 10% to 95% acetonitrile)

## C#Cc1ccn(Cc2ccc(-c3noc(C(F)(F)Cl)n3)cc2)n1 [1.03, 5-[chloro(difluoro)methyl]-3-{4-[(3-ethynyl-1H-pyrazol-1-yl)methyl]phenyl}-1,2,4-oxadiazole]
[1]
  chromatographic logP: 3.31
[2]
  chromatographic logP: 3.81

## CCOC(=O)c1cnn(Cc2ccc(-c3noc(C(F)(F)Cl)n3)cc2F)c1 [I.01]
[1]
  LogP: 3.98

## CCOC(=O)c1cnn(Cc2ccc(-c3noc(C(F)(F)Cl)n3)cc2F)c1 [1.01, ethyl 1-(4-{5-[chloro(difluoro)methyl]-1,2,4-oxadiazol-3-yl}-2-fluorobenzyl)-1H-pyrazole-4-carboxytate]
  LogP: 3.98^[a]

## OCc1ccc(-c2noc(C(F)(F)Cl)n2)cc1F [VIII"-a, (4-{5-[chloro(difluoro)methyl]-1,2,4-oxadiazol-3-yl}-2-fluorophenyl)methanol]
[1]
  chromatographic logP: 2.98
[2]
  chromatographic logP: 2.98

## Fc1cc(-c2noc(C(F)(F)Cl)n2)ccc1CBr [VIII'-a, 3-[4-(bromomethyl)-3-fluorophenyl]-5-[chloro(difluoro)methyl]-1,2,4-oxadiazole]
[1]
  chromatographic logP: 4.66
[2]
  chromatographic logP: 4.66

## Cc1ccc(C(N)=NO)s1 [N'-hydroxy-5-methylthiophene-2-carboximidamide]
[Method B] as printed in the preparation examples (taken as method [b], neutral range, 0.001 molar ammonium acetate)
  chromatographic logP: 1.17

## CCOC(=O)c1cnn(Cc2ccc(-c3noc(C(F)(F)Cl)n3)s2)c1 [I.02]
[1]
  LogP: 3.81

## CONC(=O)N(Cc1ccc(-c2noc(C(F)(F)Cl)n2)cc1)OC [1.04, 1-(4-{5-[Chloro(difluoro)methyl]-1,2,4-oxadiazol-3-yl}benzyl)-1,3-dimethoxyurea]
[1]
  chromatographic logP: 2.92
[2]
  chromatographic logP: 2.92

## CONCc1ccc(-c2noc(C(F)(F)Cl)n2)cc1 [V-a, 1-[4-[5-[Chloro(difluoro)methyl]-1.2.4-oxadiazol-3-yl]phenyl]-N-methoxy-methanamine]
[1]
  chromatographic logP: 3.09
[2]
  chromatographic logP: 3.09

## FC(F)(Cl)c1nc(-c2ccc(CBr)s2)no1 [VIII'-b, 3-[5-(bromomethyl)-2-thienyl]-5-[chloro(difluoro)methyl]-1,2,4-oxadiazole]
[1]
  chromatographic logP: 4.2
[2]
  chromatographic logP: 4.2

## Cc1ccc(-c2noc(C(F)(F)Cl)n2)cc1 [X-b, 3-(4-Methylphenyl)-5-(chlorodifluoromethyl)-1,2,4-oxadiazole]
[1]
  chromatographic logP: 4.55
[2]
  chromatographic logP: 4.55

## COC(C)C(=O)N(Cc1ccc(-c2noc(C(F)(F)Cl)n2)cc1)OC (stereo not shown) [1.05, N-(4-{5-[chloro(difluoro)methyl]-1,2,4-oxadiazol-3-yl}benzyl)-N,2-dimethoxypropan-amide]
[1]
  chromatographic logP: 3.31
[2]
  chromatographic logP: 3.31

## FC(F)(Cl)c1nc(-c2ccc(CBr)cc2)no1 [VIII'-c, 3-[4-(Bromomethyl)phenyl]-5-(chlorodifluoromethyl)-1,2,4-oxadiazole]
[1]
  chromatographic logP: 4.48
[2]
  chromatographic logP: 4.48

## Cc1ccc(-c2noc(C(F)(F)Cl)n2)s1 [X-a, 5-[chloro(difluoro)methyl]-3-(5-methyl-2-thienyl)-1,2,4-oxadiazole]
[1]
  chromatographic logP: 4.18
[2]
  chromatographic logP: 4.18

## CCOC(=O)c1cnn(Cc2ccc(-c3noc(C(F)(F)Cl)n3)s2)c1 [1.02, ethyl 1-[(5-{5-[chloro(difluoro)methyl]-1,2,4-oxadiazol-3-yl}-2-thienyl)methyl]-1H-pyrazole-4-carboxylate]
[2]
  chromatographic logP: 3.81
